Assay results taken from patent publication US5229265A, “Process for analyzing clastogenic agents” (Litron Laboratories, priority 1990, dated 1993).
Several values for one entry are separate records, joined by “and”; a condition that tells them apart may be missing. Identical values can stand only once. Entries after “also recorded” stand apart in the source; their conditions may differ.

Key:
[1] = system: micronucleated cells in blood; assay: Cyclophosphamide dose response, flow cytometric micronucleus assay; format: in vivo, mouse
Description: However, an effective flow cytometry based micronulceus assay should also be able to reflect changes in the number of MN-cells at different doses of a clastogen. Accordingly, another example of this embodiment involves a cyclophosphamide dose response analysis. Ten mice were divided into sets of two for this experiment. An initial blood sample was taken (t=0hr) for each mouse. The two control mice were dosed with saline while the other sets received different doses of cyclophosphamide (50,100,150 or 200 μg/g body weight). Each set was treated twice, at t=0 and t=48 hrs. Final blood samples were obtained at t=96hrs, and were fixed and stained with Hoechst 33258 to which PC microspheres had been added. The position of the microsphere peak was initially calibrated using the malaria infected RBCs as the primary standard. Each sample was then checked to insure that the microsphere peak was still at the calibrated position before acquisition. Some slight adjustments were necessary in the gains during the course of the analysis, during which ten t=0 samples and ten t=96 samples were run. One million total cells were counted for each sample. Gates were set on forward scatter (e.g. FIG. 3), side scatter (before the major cell peak), and a red gate (e.g. as shown in FIG. 13). These gates insured that only red blood cells and their associated micronuclei would be acquired. Following acquisition, the number of micronucleated cells at t=0 were subtracted from the number at t=96hr for each mouse. The average for the saline controls were slightly negative, and were recorded as zero in this graph. […] In addition, the high doses were approaching 1500 events more than the zero (control) values. […] For comparison, the 96hr samples were also hand counted and the number of MNs/1000 PCEs were determined.

[2] = system: micronucleated cells in blood; assay: Flow cytometric micronucleus assay, dual parameter data, MMS, Hoechst 33258 stain, per 500,000 cells; format: in vivo, mouse
Excerpt: The fixation procedure can affect the permeability of a cell, cell morphology and the amount of undesirable autofluorescence that is associated with a cell preparation. Fixing procedures can cause changes in cell structure (that are reflected in the light scatter patterns) as well as changes in the distribution of the dye molecules within the cells (resulting in altered fluorescence emission patterns). Practioners of the art are unaware that fixing the cells at ultralow temperatures circumvents these fixation problems and provides cells that are suitable for subsequent staining and FCM analysis. Initially, the cells are centrifuged in order to separate them from serum components which could aggregate when added to cold fixative. To fix cells, a fresh blood sample (25 μl) containing an anticogulant is suspended in a solution containing 1% BSA and 10% dimethylsulfoxide (DMSO) in PBS (2 ml). The cells are centrifuged at 500×g for five minutes at room temperature. The supernatant is discarded and the pellet is resuspended in the small amount of residual supernatant that remains. This cell suspension is cooled to 0° C., the cells are diluted further with cold (-70° C.) absolute methanol (2 ml) and it is incubated at -70° C. for five minutes. The cell suspension is then immediately diluted with 1% BSA in PBS (10 ml) and is centrifuged at 500×g for 5 minutes. The low temperature treatment yields fixed cells with good morphology as viewed with either inverted phase contrast microscopy or fluorescent microscopy. […] Cells fixed in this way can be stored at 0° C. for weeks with no significant deterioration and are ready for staining and MN analysis.
It is known to practioners in the art that a variety of fluorescent dyes can be used to stain the DNA and RNA of cells. […] By choosing proper concentrations of these two dyes in conjunction with 363 nm excitation wavelength, it is possible to obtain a blue fluorescence signal from the Hoechst 33258 labeled micronucleii. A red fluorescence signal can be obtained from propidium iodide labeled PCEs. […]

[3] = MMS 100 μg/g body weight IP at 0 and 48 hours, Hoechst 33258

Compound | dose response ([1]; cyclophosphamide 50, 100, 150 or 200 μg/g body weight at t=0 and t=48 hrs) | clastogenic action at the lower doses ([1]; cyclophosphamide, lower doses, FIG. 14) | increase in MN events over zero (control) values ([1]; high doses of cyclophosphamide (50-200 μg/g body weight tested) at t=0 and t=48 hrs, one million total cells) | Mns (96 hr) [2, 3] | Δ (T96 - T0), change in MNs [2, 3] | change (Δ) in MNs versus control mice ([2]; MMS 100 μg/g body weight at 0 and 48 hours, 96 hr blood)
O=P1(N(CCCl)CCCl)NCCCO1 (stereo not drawn) [cyclophosphamide] | dose response relationship is evident; also recorded: good dose response relationship is obtained | data at the lower doses clearly supports the conclusion that clastogenic action was present | ~1500 events | – | – | –
COS(C)(=O)=O [MMS, methyl methanesulfonate] | – | – | – | 1654 MNs per 500,000 cells and 1424 MNs per 500,000 cells and 1360 MNs per 500,000 cells and 1662 MNs per 500,000 cells | 713 MNs per 500,000 cells and 620 MNs per 500,000 cells and 512 MNs per 500,000 cells and 540 MNs per 500,000 cells and 596 ± 90 MNs per 500,000 cells | significantly higher than the Δ values for the control mice; also recorded: increase in the number of MNs in the analysis area relative to the initial blood
